# From paper PMC5935597 (Bioorganic & medicinal chemistry, 2018)
# Read-outs that look alike come from different tables or passages of the source.
# Columns and labels:
# H. capsulatum [1] = conditions: read-out: H. capsulatum IC50; cited from earlier work
# [2] = tested on: C. neoformans (H99 strain); conditions: read-out: C. neoformans (H99 strain) IC50; cited from earlier work
# Candida albicans = conditions: cited from earlier work
# Aspergillus fumigatus = conditions: cited from earlier work
# H. capsulatum [3] = type: cell-based, Histoplasma capsulatum; conditions: for times more active than 41F5 against H. capsulatum: relative to 41F5; for activity against H. capsulatum evaluated comparatively at pH 5 and pH 7: pH 5 versus pH 7 (SM-S.2)
# [4] = tested on: C. neoformans (H99 strain); experiment: microbe, parasite or virus in culture; type: cell-based, Cryptococcus neoformans
# Blastomyces dermatitidis = conditions: cited from earlier work
structure (smiles),measurement,setting,value
O=C(CCC1CCCCC1)Nc1ncc(Cc2cccc3ccccc23)s1 [A],IC50,H. capsulatum [1],400 nM
same,IC50,[2],> 10000 nM
Cc1ccc(Oc2ccccc2-c2csc(N=C3NCCCN3)n2)c(C)c1 [Abafungin],activity against Candida albicans,Candida albicans,active
same,activity against Aspergillus fumigatus,Aspergillus fumigatus,active
O=C(Nc1ncc(Cc2ccccc2)s1)C1CCCCC1 [B],IC50,H. capsulatum [1],1600 nM
O=C(CCC1CCCCC1)Nc1ncc(Cc2ccccc2)s1 [C],IC50,H. capsulatum [1],700 nM
same,IC50,[2],> 10000 nM
O=C(Nc1ncc(Cc2cccc3ccsc23)s1)C1CCCCC1 [Compound 17b],times more active than 41F5 against H. capsulatum,H. capsulatum [3],~ 2 times
same,times more active than 41F5 against C. neoformans,[4],~ 2 times
O=C(CCC1CCCCC1)Nc1ncc(Cc2cccc3nsnc23)s1 [Compound 20a],activity against H. capsulatum evaluated comparatively at pH 5 and pH 7,H. capsulatum [3],No significant differences
same,activity against C. neoformans evaluated comparatively at pH 5 and pH 7,[4],No significant differences
O=C(CCC1CCCCC1)Nc1ncc(Cc2cccc3sccc23)s1 [Compound 22a],times more active than 41F5 against H. capsulatum,H. capsulatum [3],~ 2 times
O=C(Nc1ncc(Cc2cccc3sccc23)s1)C1CCCCC1 [Compound 22b],times more active than 41F5 against H. capsulatum,H. capsulatum [3],~ 2 times
same,times more active than 41F5 against C. neoformans,[4],~ 2 times
same,IC50,"[4]; Cryptococcus neoformans, read-out: C. neoformans (H99 strain) IC50 [±SD]",370 nM
same,MIC,"[4]; Cryptococcus neoformans, read-out: C. neoformans (H99 strain) MIC",1.25 µM
O=C(CCC1CCCCC1)Nc1ncc(Cc2csc3ccccc23)s1 [Compound 23a],times more active than 41F5 against H. capsulatum,H. capsulatum [3],~ 2 times
O=C(Nc1ncc(Cc2cccc3c2CCC3)s1)C1CCCCC1 [Compound 26b],times more active than 41F5 against H. capsulatum,H. capsulatum [3],~ 2 times
same,times more active than 41F5 against C. neoformans,[4],~ 2 times
O=C(CCC1CCCCC1)Nc1ncc(Cc2ccnc3ccccc23)s1 [Compound 28a],activity against H. capsulatum evaluated comparatively at pH 5 and pH 7,H. capsulatum [3],No significant differences
same,activity against C. neoformans evaluated comparatively at pH 5 and pH 7,[4],No significant differences
O=C(CCC1CCCCC1)Nc1ncc(Cc2ccccn2)s1 [Compound 29a],activity against H. capsulatum evaluated comparatively at pH 5 and pH 7,H. capsulatum [3],No significant differences
same,activity against C. neoformans evaluated comparatively at pH 5 and pH 7,[4],No significant differences
O=C(Nc1ncc(Cc2cccnc2)s1)C1CCCCC1 [Compound 31],activity against H. capsulatum evaluated comparatively at pH 5 and pH 7,H. capsulatum [3],No significant differences
same,activity against C. neoformans evaluated comparatively at pH 5 and pH 7,[4],No significant differences
O=C(CCC1CCCCC1)Nc1ncc(Cc2ccncc2)s1 [Compound 32a],activity against H. capsulatum evaluated comparatively at pH 5 and pH 7,H. capsulatum [3],No significant differences
same,activity against C. neoformans evaluated comparatively at pH 5 and pH 7,[4],No significant differences
O=C(c1cnc(NC(=O)C2CCCCC2)s1)c1cccc2ccccc12 [Compound 36b],times more active than 41F5 against H. capsulatum,H. capsulatum [3],~ 2 times
"O=C(Nc1ncc(Cc2cccc3ccccc23)s1)C1CCCCC1 [Compound 41F5, N-[5-(1-naphthalenylmethyl)-2-thiazolyl]cyclohexanecarboxamide]",IC50,H. capsulatum [1],400 nM
same,IC50,[2],400 nM
same,activity against Candida albicans,Candida albicans,inactive
same,activity against Aspergillus fumigatus,Aspergillus fumigatus,inactive
same,activity against Blastomyces dermatitidis,Blastomyces dermatitidis,inactive
